Target: angiotensin-converting enzyme (ACE) (Homo sapiens, UniProt P12821)
Assay: ACE inhibitory activity
Format: biochemical
Conditions: ratio IPP versus VPP

Sequence of angiotensin-converting enzyme (ACE) (P12821 30-1306, species assumed): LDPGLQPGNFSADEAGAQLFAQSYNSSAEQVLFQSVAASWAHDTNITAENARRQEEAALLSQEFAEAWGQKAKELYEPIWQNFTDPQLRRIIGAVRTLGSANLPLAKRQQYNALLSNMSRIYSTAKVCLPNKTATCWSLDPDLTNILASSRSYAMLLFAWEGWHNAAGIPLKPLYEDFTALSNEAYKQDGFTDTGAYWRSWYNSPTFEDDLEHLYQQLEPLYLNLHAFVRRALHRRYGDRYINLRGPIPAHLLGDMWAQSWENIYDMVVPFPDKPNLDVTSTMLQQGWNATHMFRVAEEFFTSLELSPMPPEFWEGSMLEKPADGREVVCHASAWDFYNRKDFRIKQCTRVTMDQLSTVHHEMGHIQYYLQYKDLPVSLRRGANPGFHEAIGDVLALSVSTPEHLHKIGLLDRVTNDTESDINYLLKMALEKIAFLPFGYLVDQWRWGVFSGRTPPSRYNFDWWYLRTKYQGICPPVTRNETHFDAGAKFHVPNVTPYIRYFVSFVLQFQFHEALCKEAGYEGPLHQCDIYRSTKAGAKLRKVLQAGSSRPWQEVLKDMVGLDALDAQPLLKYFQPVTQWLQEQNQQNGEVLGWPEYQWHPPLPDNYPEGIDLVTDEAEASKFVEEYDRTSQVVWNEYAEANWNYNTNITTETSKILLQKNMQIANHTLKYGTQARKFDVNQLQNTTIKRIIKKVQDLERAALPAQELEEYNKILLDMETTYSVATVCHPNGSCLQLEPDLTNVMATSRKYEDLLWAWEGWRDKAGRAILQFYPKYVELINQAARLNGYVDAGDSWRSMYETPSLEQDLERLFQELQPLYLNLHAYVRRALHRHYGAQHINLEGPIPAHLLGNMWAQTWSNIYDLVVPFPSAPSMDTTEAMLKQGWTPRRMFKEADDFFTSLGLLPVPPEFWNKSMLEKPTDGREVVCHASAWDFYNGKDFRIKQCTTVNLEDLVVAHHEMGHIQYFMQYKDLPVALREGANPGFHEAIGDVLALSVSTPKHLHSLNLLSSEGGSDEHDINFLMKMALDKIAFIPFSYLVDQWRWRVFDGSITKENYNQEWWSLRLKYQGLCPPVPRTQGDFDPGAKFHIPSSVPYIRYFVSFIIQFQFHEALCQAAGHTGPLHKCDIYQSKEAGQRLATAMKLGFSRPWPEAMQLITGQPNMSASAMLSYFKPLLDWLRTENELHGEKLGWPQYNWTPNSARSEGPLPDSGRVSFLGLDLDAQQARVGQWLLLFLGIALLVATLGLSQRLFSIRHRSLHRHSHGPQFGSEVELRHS

Ile-Pro-Pro [IPP]
ACEI activity of IPP relative to VPP: 1.7 times

From patent US6428812B1, “Process for producing granules containing angiotensin-converting enzyme inhibiting peptides” (Calpis Co., Ltd., priority 1999, dated 2002)
